Measurements: ChEMBL document CHEMBL3301464, “MMV Malaria Box anti-babesial screening”

Tests used:
[1] = (§1) MMV: Anti-babesial activity assay. Parasite pRBCs at 1% parasitemia were cultivated in 100 ul with 96-well plates at 2.5% and 5% hematocrits. The parasites were cultivated in triplicate for 4 days without replacement of the medium for each concentration of the compound.; assay type: functional, Babesia bovis
[2] = as §1; assay type: functional, Babesia bigemina
[3] = as §1; assay type: functional, Babesia equi
[4] = as §1; assay type: functional, Babesia caballi

SMILES | IC50 [1] [µM] | IC50 [2] [µM] | IC50 [3] [µM] | IC50 [4] [µM]
COc1ccc(Nc2nc(N/N=C/c3ccc(O)cc3)nc(Nc3ccc([N+](=O)[O-])cc3)n2)cc1 | 0.081 | 0.05 | 15.9 | 5.09
O=C(NC1CCN(Cc2ccccc2)CC1)c1cc2nc(-c3ccc(Cl)s3)cc(C(F)(F)F)n2n1 | 1.42 | 0.065 | 13.9 | 4.13
Cc1sc(NC(=O)c2ccccc2)c(C(c2cccs2)N2CCN(c3ccccc3)CC2)c1C (stereo unspecified) | 1.05 | 0.68 | 10.7 | 14.7
CCOc1ccc(N2C(N)=NC(N)=NC2(C)C)cc1 | 15.2 | 5.9 | 14 | 2.95
COc1cccc(Nc2nc(N)c3ccccc3n2)c1 | 0.12 | 0.057 | 17.2 | 2.95
COC(=O)c1ccc(C2C3=C(O)CC(c4ccc(F)cc4)CC3=Nc3ccccc3N2C(=O)c2ccccc2)cc1 (stereo unspecified) | 0.063 | 0.086 | 10.4 | 6.86
CC(Oc1ccc(NC(=O)c2cccs2)cc1)C(=O)c1ccc(Cl)cc1 (stereo unspecified) | 0.1 | 0.081 | 13.3 | 0.29
CCOc1ccc(CN2CCN(CC(O)COc3ccc(OCC(O)CN4CCN(Cc5ccc(OCC)cc5)CC4)cc3)CC2)cc1 (stereo unspecified) | 0.05 | 0.13 | 0.45 | 0.37
CCCCNc1nc(NC(C)(C)C)nc(NC(C)(C)C)n1 | 0.65 | 1 | 0.25 | 0.672
COc1ccc(CCn2c(=N)c(C(=O)NCc3cccnc3)cc3c(=O)n4cccc(C)c4nc32)cc1 | 0.13 | 0.052 | 0.41 | 4.27
Cn1c(=O)n(C)c2cc(CNCCNc3ccnc4cc(Cl)ccc34)ccc21 | 0.071 | 0.081 | 0.1 | 0.489
COc1ccc(Nc2cc(C)nc(NCc3ccccc3)n2)cc1 | 0.054 | 0.067 | 15.2 | 14.6
Cc1ccc(Nc2nc(N)c3ccccc3n2)cc1Cl | 6.31 | 9.87 | 16.5 | 10
CCc1ccc(CNCC(O)c2ccccc2)cc1 (stereo unspecified) | 11.1 | 7.65 | 15.2 | 4.13
COc1cc(CNCCc2ccc(Cl)cc2)cc(OC)c1O | 10 | 5.81 | 12.6 | 6.85
CCOc1ccc(Nc2ccnc3cc(Cl)ccc23)cc1 | 0.056 | 0.068 | 15.9 | 10
CCOc1ccc2nc(C)cc(Nc3ccc(Br)cc3)c2c1 | 1.07 | 0.6 | 7.13 | 15.2
COc1ccc2sc(N(Cc3cccnc3)C(=O)c3ccc(C#N)cc3)nc2c1 | 13.7 | 11.9 | 14.6 | 6.72
CCOC(=O)C1=CN(C)C=C(C(=O)OCC)C1c1cc(Br)c(OCC)c(OC)c1 | 0.091 | 0.1 | 14.1 | 2.63
CC(C)(C)c1ccc(C2CC3=Nc4ccccc4N(C(=O)c4ccccc4Cl)C(c4ccc(F)cc4)C3=C(O)C2)cc1 (stereo unspecified) | 21.4 | 12 | 15.2 | 3.73
CN1CCN(c2nc(Nc3ccc(O)cc3)nc3ccccc23)CC1 | 16.8 | 10.2 | 15.6 | 9
CCCCc1c(CCC)c(=N)c2ccccc2n1C | 0.087 | 0.059 | 15.2 | 1
Nc1ccn([C@@H]2O[C@H](CO)[C@@H](O)[C@H]2O)c(=O)n1 [CYTIDINE] | 7.31 | 19.1 | 14.1 | 4.27
O=C(Nc1cccc(C2=NCCN2)c1)Nc1cccc(C2=NCCN2)c1 [IMIDOCARB] | 0.059 | 0.5 | 0.052 | 0.081
